We go through 2 molecules from paper PMC9352027, “Targeting lipid biosynthesis pathways for hepatitis B virus cure” (PLoS ONE, 2022).

One series concerns ACC. Kind of series: On-target activity: serum and liver triglycerides and liver mRNA by qRT-PCR. The series is classed as in vivo, human liver-chimeric uPA/SCID mice. The settings on record: 10 mg/kg oral once daily, versus vehicle. The method, then: (§1) For the ACC inhibitor efficacy study, HBV-infected mice were randomized into two different treatment groups based on body weight, blood h-Alb, and serum HBV DNA concentrations. All mice had blood h-Alb levels above 12 mg/mL and serum HBV DNA levels above 2.5x10^7 copies/mL. Mice received an oral dose of 10 mg/kg ACC inhibitor or dosing vehicle (vehicle control) once daily for 29 days. ACC inhibitor was dosed in 0.5% sodium carboxymethylcellulose (medium viscosity), 1% w/v ethanol, 98.5% w/v 50 mM Tris buffer, pH 8 in reverse osmosis water (or equivalent). Terminal livers were collected, weighed, and separated into pieces that were flash frozen in liquid nitrogen or immersed in RNAlater solution (Life Technologies, Carlsbad, CA).
Whole blood h-Alb was determined using (BioMajestyTM Series JCA-BM6050, JEOL Ltd., Tokyo, Japan). Serum human alanine aminotransferase (h-ALT1) concentration was determined based on Enzyme-Linked ImmunoSorbent Assay (ELISA) developed by Institute of Immunology Co., Ltd. (Tokyo, Japan). The real-time detection PCR to measure the serum HBV DNA concentration was performed using the KUBIX HBV qPCR Kit (KUBIX Inc.) and CFX96 Touch™ Real-Time PCR Detection System. […] Serum HBsAg and HBeAg concentration were determined by SRL, Inc. (Tokyo, Japan) based on Chemiluminescent Enzyme Immuno Assay (CLEIA) developed by Fujirebio. Serum and intrahepatic triglycerides analysis were performed by Skylight Biotech Inc. (Akita, Japan). Terminal plasma and liver were collected 2-hours after ACC inhibitor dose for PK analysis which was performed by Charles River Laboratories (Wilmington, MA). RNA was isolated from RNAlater®-immersed liver samples with RNeasy kit following manufacturer’s instructions (Qiagen). qRT-PCR on the targeted genes was evaluated by Taqman (Assay IDs Hs04984975_m1 (SREBF1), Hs01682761_m1 (SCD), Hs01005622_m1 (FASN), Hs01046047_m1 (ACACA) and normalized to GAPDH endogenous control (Assay ID 4310884E).
(§2) Using the same batch of human hepatocytes and HBV virus used for the metabolomic and RNAseq analyses, mice (n = 7/group) were dosed orally eight weeks post HBV infection with vehicle or 10 mg/kg ACC inhibitor once daily for four weeks. HBV viral markers (HBsAg, HBeAg, and HBV DNA) and liver toxicity markers (ALT, h-Alb) were measured weekly (Fig 5A). On-target activity was evaluated by monitoring changes in triglycerides and liver mRNA expression levels of genes in the targeted pathway (Fig 5A).
A general note: Real-time PCR tracks product formation cycle by cycle.

For series [1] the following is noted: two hours post dosing. The method, then: For the ACC inhibitor efficacy study, HBV-infected mice were randomized into two different treatment groups based on body weight, blood h-Alb, and serum HBV DNA concentrations. All mice had blood h-Alb levels above 12 mg/mL and serum HBV DNA levels above 2.5x10^7 copies/mL. Mice received an oral dose of 10 mg/kg ACC inhibitor or dosing vehicle (vehicle control) once daily for 29 days. ACC inhibitor was dosed in 0.5% sodium carboxymethylcellulose (medium viscosity), 1% w/v ethanol, 98.5% w/v 50 mM Tris buffer, pH 8 in reverse osmosis water (or equivalent). […]
(§3) Whole blood h-Alb was determined using (BioMajestyTM Series JCA-BM6050, JEOL Ltd., Tokyo, Japan). Serum human alanine aminotransferase (h-ALT1) concentration was determined based on Enzyme-Linked ImmunoSorbent Assay (ELISA) developed by Institute of Immunology Co., Ltd. (Tokyo, Japan). […] Serum HBsAg and HBeAg concentration were determined by SRL, Inc. (Tokyo, Japan) based on Chemiluminescent Enzyme Immuno Assay (CLEIA) developed by Fujirebio. […] RNA was isolated from RNAlater®-immersed liver samples with RNeasy kit following manufacturer’s instructions (Qiagen). qRT-PCR on the targeted genes was evaluated by Taqman (Assay IDs Hs04984975_m1 (SREBF1), Hs01682761_m1 (SCD), Hs01005622_m1 (FASN), Hs01046047_m1 (ACACA) and normalized to GAPDH endogenous control (Assay ID 4310884E).

The test system of the next series is HBV genotype C. Kind of series: ACC inhibitor efficacy study in HBV-infected chimeric humanized mice: serum viral markers. It is filed as in vivo, human liver-chimeric uPA/SCID mice. Conditions: 10 mg/kg oral once daily for four weeks, throughout the study. The method, then: as §1, §3, §2
The next series concerns DNL in HepG2 cells. On the set-up: method as in PMID 32376414, doi:10.1002/hep.31579. The settings on record: cited from earlier work.
For series [2], the system named is HBsAg secretion in HBV-infected HepG2-NTCP cells. The experiment in a line: microbe, parasite or virus in culture. It is filed as cell-based, Hepatitis B virus genotype D (AD38). The settings on record: HBV-infected HepG2-NTCP cells. On the procedure: (§4) Production of wild-type HBV virions from HepAD38 cells was performed as previously described. HepG2-NTCP cells were bulk plated on collagen coated flasks at a density of 6x10^6 cells/ T175 flask. Following a 3-day incubation at 37°C, cells were infected with genotype D (AD38) virus at […] in the presence of 4% PEG8000 and 2.5% DMSO. HepG2-NTCP cells were washed 3 times with OPTI-MEM and maintained in Dulbecco’s modified Eagle’s medium (DMEM) supplemented with 2% FBS and 2.5% DMSO for the following 4 days. HBV-infected HepG2-NTCP cells were trypsinized, resuspended in DMEM supplemented with 2% FBS and 1% DMSO, and seeded onto serially diluted small molecule inhibitors at a 0.5% final DMSO concentration (S1 Table) in 384-well collagen coated plates at a density of 20,000 cells/well for 3 additional days.
(§5) Cell culture supernatant (3 μL) was transferred to two 1536-well plates and HBsAg and HBeAg levels subsequently measured by HTRF (Cisbio). HBsAg was measured using Terbium conjugated (XTL-17) and D2 receptor conjugated (XTL19) anti-HBsAg antibodies, while HBeAg was measured using Terbium conjugated (GWB-F19420, Genway Biotech) and D2 receptor conjugated (GWB-24DEF, Genway Biotech) anti-HBeAg antibodies. […] was measured using an Envision plate reader at emissions of 665 nm and 615 nm. The ratio of 665/615 was used to plot compound dose response curves and EC50 values were calculated from the fit of the dose−response curves to a four-parameter equation.
(§6) (A) Schematic overview of the pathways involved in lipid biosynthesis, such as DNL, TG esterification and cholesterol biosynthesis. […] (B-D) HepG2-NTCP cells infected with HBV for three days were treated with selected compounds in an eight-point dose response. After three days of treatment, extracellular HBsAg and HBeAg levels as well as cell viability were measured.

For series [3], the system named is HBeAg in HBV-infected HepG2-NTCP cells. Kind of series: microbe, parasite or virus in culture. The series is classed as cell-based, Hepatitis B virus genotype D (AD38). The settings on record: HBV-infected HepG2-NTCP cells, three days of treatment, extracellular; read-out: HBeAg, EC50. The method, then:
as §4, §5, §6

For series [4], the system named is triglyceride accumulation in HepG2 cells. Further details: method as in PMID 32376414, doi:10.1002/hep.31579. Conditions: read-out: palmitic acid-induced triglyceride accumulation EC50; cited from earlier work.
Series [5] deals with HBV-infected HepG2-NTCP cells. Kind of series: Cell viability by CellTiter Glo. Conditions: three days of treatment. It is filed as cell-based, human. On the procedure:
as §4
Cells were analyzed for cell viability by addition of CellTiter Glo (Promega) to the assay plates and analyzed using an Envision plate reader (Perkin Elmer). CC50 values were calculated from the fit of the dose−response curves to a four-parameter equation. All CC50 values represent geometric mean values of a minimum of four determinations.
as §6

The format of series [6] is in vivo, human liver-chimeric uPA/SCID mice. Conditions: 10 mg/kg oral once daily for four weeks. On the procedure:
All animal work was performed by PhoenixBio Co, Ltd (Higashi-Hiroshima City, Japan). Detailed observations of general condition and individual body weights were conducted once daily throughout the in-life phase. All animal protocols were performed in accordance with the Guide for the Care and Use of Laboratory Animals and approved by the Animal Welfare Committee of Phoenix Bio Co., Ltd. All mice were housed individually and maintained in accordance with the Animal Ethics Committee of PhoenixBio (resolution #2518 and 2552). All surgery was performed under isoflurane anesthesia, and all efforts were made to minimize suffering. On Day 17, Animal ID No. 107 (vehicle-treated) was found dead.

Series [7] relates to HBsAg secretion in Hep3B cells. On the set-up: method as in PMID 14517078. The settings on record: depletion of cellular cholesterol; cited from earlier work.

Some results are limits rather than exact numbers.

Take `COc1ccccc1[C@H](Cn1c(=O)n(C(C)(C)C(=O)O)c(=O)c2c(C)c(-c3ncco3)sc21)O[C@H]1CC[C@@H](O)CC1` [ACC inhibitor, 2-(1-((R)-2-(((1s,4S)-4-hydroxycyclohexyl)oxy)-2-(2-methoxyphenyl)ethyl)-5-methyl-6-(oxazol-2-yl)-2,4-dioxo-1,4-dihydrothieno[2,3-d]pyrimidin-3(2H)-yl)-2-methylpropanoic acid]: in the series with ACC (day 17 of treatment), the “increase in serum triglycerides” value was 30%. In the series on ACC (day 29 of treatment), the “reduction in liver triglycerides” value was 40%. In addition, in the series on ACC (qRT-PCR), the “liver mRNA expression level of ACACA” value is given as “statistically significant increase”, the “liver mRNA expression level of FASN” value is recorded as “statistically significant increase”, the “liver mRNA expression level of SCD” value was “statistically significant increase” and the “liver mRNA expression level of SREBF1” value is given as “increased with ACC treatment albeit did not reach statistical significance”. The “Liver exposure over protein-adjusted EC50 (paEC50)” value in [1] (paEC50 based on HepG2-serum free-DNL assay) is 4.5 fold. In addition, the Liver exposure in series [1] (10 mg/kg oral once daily, HBV-infected chimeric humanized mice) came out at 740 nM. In the series with HBV genotype C, the “reduction in serum HBV DNA levels” value is listed as “no reduction”, the “reduction in serum HBeAg levels” value is listed as “no reduction” and the “reduction in serum HBsAg levels” value is “no reduction”. Moreover, the 50% effective concentration (EC50) (in general, the midpoint of the concentration-response curve) with DNL in HepG2 cells is 6.6 nM. Also, in series [2], the “selectivity HBsAg versus HBeAg” value is “inhibition of HBeAg but at a higher concentration than HBsAg”. Moreover, the “inhibition of HBsAg secretion” value in series [2] (maximal (up to)) is given as “up to 80%”. In addition, the EC50 in series [2] (three days of treatment, extracellular, read-out: HBsAg, EC50) is 29 nM. Further, in series [3], the EC50 amounted to 9.6 µM. Further, the EC50 in [4] is 23 nM. The half-maximal cytotoxic concentration (CC50) (as a rule, the concentration giving 50% cytotoxicity) in series [5] is greater than 10 µM. Also, the “toxicity based on body weight change, serum ALT, and h-Alb levels” value in series [6] is “no evidence of toxicity”.
`CC[C@H](C)C(=O)O[C@H]1C[C@@H](C)C=C2C=C[C@H](C)[C@H](CC[C@@H]3C[C@@H](O)CC(=O)O3)[C@H]21` [lovastatin]: in series [7], the HBsAg secretion entry is on record as “significantly reduced”.
